Data taken from patent publication US7824866B2, “Ligand for G-protein coupled receptor GPR72 and uses thereof” (Euroscreen S.A., priority 2006, dated 2010).
pEC50: −log10 of the molar value.

Each compound was assayed against T1, human GPR72 (Homo sapiens, UniProt Q9NYM4) (assay: Aequorin-based functional assay: intracellular calcium release (luminescence) in CHO-K1 cells stably expressing human GPR72, mitochondrial apoaequorin and Galpha16). Conditions: not given.
Assay type: cell-based
Design: expressed in transfected cells

T1 sequence (Q9NYM4 17-423): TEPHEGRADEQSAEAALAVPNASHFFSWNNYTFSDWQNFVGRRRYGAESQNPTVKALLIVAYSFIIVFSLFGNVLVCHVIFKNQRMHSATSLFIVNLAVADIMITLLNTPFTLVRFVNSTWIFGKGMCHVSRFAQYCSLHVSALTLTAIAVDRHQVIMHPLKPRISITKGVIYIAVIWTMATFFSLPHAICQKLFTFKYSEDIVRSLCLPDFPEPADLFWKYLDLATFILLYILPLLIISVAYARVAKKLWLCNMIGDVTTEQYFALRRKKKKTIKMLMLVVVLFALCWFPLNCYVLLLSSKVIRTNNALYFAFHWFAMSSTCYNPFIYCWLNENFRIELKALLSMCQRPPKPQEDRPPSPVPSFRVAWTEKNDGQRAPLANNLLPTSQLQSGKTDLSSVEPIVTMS

| Compound | pEC50 |
| --- | --- |
| CCCCC/C=C\C/C=C\C/C=C\C/C=C\CCCC(=O)O [Eicosa-5Z,8Z,11Z,14Z-tetraenoic acid] | 5.30 |
| CCCCC/C=C\C/C=C\C/C=C\C/C=C\CCCC(=O)NCC(=O)O [N-arachidonoyl-glycine] | 5.46 |
| CC/C=C\C/C=C\C/C=C\CCCCCCCC(=O)O [Octadeca-9Z,12Z,15Z-trienoic acid] | 5.33 |

Same assay, conditions: Figure 8, SAR of arachidonic acid on human GPR72 activation; CHO-K1 cells, aequorin; read-out: GPR72 EC50

| Compound | pEC50 |
| --- | --- |
| CC1=C(/C=C/C(C)=C\C=C\C(C)=C\C(=O)O)C(C)(C)CCC1 [9-cis-Retinoic acid] | 6.40 |
| CC1=C(/C=C/C(C)=C/C=C/C(C)=C/C(=O)O)C(C)(C)CCC1 [All-trans-retinoic acid] | 4.07 |
| CC/C=C\C/C=C\C/C=C\C/C=C\C/C=C\C/C=C\CCC(=O)O [Docosa-4Z,7Z,10Z,13Z,16Z,19Z-hexaenoic acid] | 5.70 |
| CC/C=C\C/C=C\C/C=C\C/C=C\C/C=C\CCCCCC(=O)O [Docosa-7Z,10Z,13Z,16Z,19Z-pentaenoic acid] | 5.03 |
| CC/C=C\C/C=C\C/C=C\CCCCCCCCCCCC(=O)O [Docosa-13Z,16Z,19Z-trienoic acid] | 4.60 |
| CC/C=C\C/C=C\C/C=C\C/C=C\C/C=C\CCCC(=O)O [Eicosa-5Z,8Z,11Z,14Z,17Z-pentaenoic acid] | 5.48 |
| CCCCCCCC/C=C\C/C=C\C/C=C\CCCC(=O)O [Eicosa-5Z,8Z,11Z-trienoic acid] | 5.20 |
| CC/C=C\C/C=C\C/C=C\C/C=C\CCCCCCC(=O)O [Eicosa-8Z,11Z,14Z,17Z-tetraenoic acid] | 5.22 |
| CCCCC/C=C\C/C=C\C/C=C\CCCCCCC(=O)O [Eicosa-8Z,11Z,14Z-trienoic acid] | 4.36 |
| CCCCC/C=C\C/C=C\CCCCCCCCCC(=O)O [Eicosa-11Z,14Z-dienoic acid] | 4.75 |
| CCCCC/C=C\C/C=C\C/C=C\C/C=C\CCCC(=O)NCC(O)CC(=O)O (stereo not drawn) [N-arachidonoyl-3-hydroxy-γ-aminobutyric acid] | 6.15 |
| CCCCC/C=C\C/C=C\C/C=C\C/C=C\CCCC(=O)N[C@@H](C)C(=O)O [N-arachidonoyl-L-alanine] | 5.54 |
| CCCCC/C=C\C/C=C\C/C=C\C/C=C\CCCC(=O)N[C@@H](CO)C(=O)O [N-arachidonoyl-L-serine] | 5.52 |
| CCCCC/C=C\C/C=C\C/C=C\C/C=C\CCCC(=O)NCCS(=O)(=O)O [N-arachidonoyl-L-taurine] | 5.89 |
| CCCCC/C=C\C/C=C\C/C=C\C/C=C\CCCC(=O)NCCCC(=O)O [N-arachidonoyl-γ-aminobutyric acid] | 5.37 |
| CCCCC/C=C\C/C=C\C/C=C\CCCCC(=O)O [Octadeca-6Z,9Z,12Z-trienoic acid] | 6.10 |

Same assay, conditions: Figure 9, additional PUFAs; CHO-K1 cells stably expressing human GPR72, aequorin; read-out: human GPR72 receptor EC50

| Compound | pEC50 |
| --- | --- |
| CC1=C(/C=C/C(C)=C/C=C/C(C)=C\C(=O)O)C(C)(C)CCC1 [13-cis-Retinoic acid] | 4.80 |
| CCCCC/C=C\C/C=C\C/C=C\C/C=C\CCCCCC(=O)O [Docosa-7Z,10Z,13Z,16Z-tetraenoic acid] | 5.00 |
| CCCCCC#CCC#CCC#CCC#CCCCC(=O)O [Eicosa-5,8,11,14-tetraynoic acid] | 4.57 |
| CCCCCCCCC#CCC#CCC#CCCCC(=O)O [Eicosa-5,8,11-triynoic acid] | 4.92 |
| CC/C=C\C/C=C\C/C=C\CCCCCCCCCC(=O)O [Eicosa-11Z,14Z,17Z-trienoic acid] | 4.60 |
| CC/C=C\C/C=C\C/C=C\C/C=C\CCCCC(=O)O [Octadeca-6Z,9Z,12Z,15Z-tetraenoic acid] | 4.13 |

Same assay, conditions: Figure 10, thiazolidinediones; CHO-K1 cells stably expressing human GPR72, aequorin; read-out: human GPR72 receptor EC50

| Compound | pEC50 |
| --- | --- |
| CC1(COc2ccc(CC3SC(=O)NC3=O)cc2)CCCCC1 (stereo not drawn) [Ciglitazone] | 4.46 |
| O=C1NC(=O)C(Cc2ccc3cc(OCc4ccccc4F)ccc3c2)S1 (stereo not drawn) [MCC-555] | 4.60 |

The compounds below were run against T1, human GPR72 (assay: aequorin intracellular calcium release assay, CHO-K1 cells expressing human GPR72). Conditions: CHO-K1 cells coexpressing human GPR72 and apoaequorin; mock-transfected cells as control; FIG. 5.
Assay type: cell-based
Design: expressed in transfected cells; host or cells: CHO-K1 cells coexpressing mitochondrial apoaequorin and a G alpha subunit (Gα16)
Protocol: (§1) The aequorin assay takes advantage of the responsiveness of mitochondrial apoaequorin to intracellular calcium release induced by the activation of GPCRs (Stables et al., 1997, Anal. Biochem. 252:115-126; Detheux et al., 2000, J. Exp. Med., 192 1501-1508; both of which are incorporated herein by reference). Briefly, GPR72 polypeptide-expressing clones are transfected to coexpress mitochondrial apoaequorin and Gα16. Cells are incubated with 5 μM Coelenterazine H (Molecular Probes) for 4 hours at room temperature, washed in DMEM-F12 culture medium and resuspended at a concentration of 0.5×10^6 cells/ml. Cells are then mixed with test agonist molecules and light emission by the aequorin is recorded with a luminometer for 30 sec. Results are expressed as Relative Light Units (RLU). Controls include assays using membranes isolated from cells not expressing GPR72 polypeptide (mock transfected), in order to exclude possible non-specific effects of the candidate compound.
GPR72 expressing clones have been obtained by transfection of CHO-K1 cells to coexpressing mitochondrial apoaequorin and […], limiting dilution and selection by RT-PCR. Positive clones were used for biological extract library screening with porcine spleen extracts prepared as described above. A functional assay based on the luminescence of mitochondrial aequorin intracellular Ca^2+ release (Stables et al., 1997, Anal. Biochem. 252:115-126; incorporated herein by reference) was performed as described (Detheux et al., 2000, J. Exp. Med., 192 1501-1508; incorporated herein by reference). Briefly, cells were collected from plates in PBS containing 5 mM EDTA, pelleted and resuspended at 5×10^6 cells/ml in DMEM-F12 medium. Cells were incubated with 5 μM Coelenterazine H (Molecular Probes) for 4 hours at room temperature. Cells were then washed in DMEM-F12 medium and resuspended at a concentration of 0.5×10^6 cells/ml. Cells were then mixed with test agonist peptides or plates containing tissue extracts and the light emission was recorded for 30 sec using a Microlumat luminometer (Perkin Elmer). Results are expressed as Relative Light Units (RLU).
After being identified from active porcine […] fraction, ability of arachidonic acid to trigger intracellular calcium release was tested on CHO-K1 cell lines coexpressing the human or the mouse GPR72 receptor and apoaequorin. We have used the aequorin assay as previously described in Detheux et al. (2000) J exp Med. 192, 1501-1508. […] Arachidonic acid was also able to activate specifically the mouse GPR72 at concentration around 5 micromolar (FIG. 6).
PUFAs were tested on CHO-K1 cells stably expressing the human GPR72 for their ability to trigger intracellular calcium using aequorin. Obtained EC50 are in the 1-20 μM range (FIG. 7).

| Compound | concentration at which the human GPR72 is specifically activated |
| --- | --- |
| CCCCC/C=C\C/C=C\C/C=C\C/C=C\CCCC(=O)O [arachidonic acid, 5,8,11,14-all-cis-eicosatetraenoic acid] | around 5 micromolar |

Same assay, conditions: human GPR72 receptor; FIG. 8

| Compound | activity on GPR72 (structure-activity relationship) |
| --- | --- |
| CCCCC/C=C\C/C=C\C/C=C\C/C=C\CCCC(=O)NCCS(=O)(=O)O [N-arachidonoyl-L-taurine] | active |
| CCCCC/C=C\C/C=C\C/C=C\C/C=C\CCCC(=O)NCC(=O)O [N-arachidonoyl-glycine] | active |
| CCCCC/C=C\C/C=C\C/C=C\C/C=C\CCCC(=O)OC [arachidonic acid methyl ester] | not active |
| CCCCC/C=C\C/C=C\C/C=C\C/C=C\CCCC(=O)O [arachidonic acid, 5,8,11,14-all-cis-eicosatetraenoic acid] | active |

These compounds were tested against T2, mouse GPR72 (Mus musculus, UniProt P30731) (assay: aequorin intracellular calcium release assay, CHO-K1 cells expressing mouse GPR72). Conditions: CHO-K1 cells coexpressing mouse GPR72 and apoaequorin; FIG. 6.
T2 construct: expressed in transfected cells; host or cells: CHO-K1 cells coexpressing apoaequorin
T2 sequence (P30731 18-423): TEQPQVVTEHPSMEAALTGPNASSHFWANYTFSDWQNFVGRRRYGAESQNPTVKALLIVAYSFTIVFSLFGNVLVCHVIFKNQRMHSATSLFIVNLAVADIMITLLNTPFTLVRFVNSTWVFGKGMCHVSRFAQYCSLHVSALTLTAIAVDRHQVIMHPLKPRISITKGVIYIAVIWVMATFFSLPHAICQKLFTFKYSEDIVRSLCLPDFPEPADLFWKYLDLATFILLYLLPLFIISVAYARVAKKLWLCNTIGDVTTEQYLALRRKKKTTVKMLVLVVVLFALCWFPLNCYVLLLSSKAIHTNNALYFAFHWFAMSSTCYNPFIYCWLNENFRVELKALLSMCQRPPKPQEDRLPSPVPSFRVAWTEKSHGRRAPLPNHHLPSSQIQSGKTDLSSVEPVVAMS
Assay type: cell-based
Protocol: as §1, with “Controls include assays using membranes isolated from cells not expressing GPR72 polypeptide (mock transfected), in order to exclude possible non-specific effects of the candidate compound.” left out
GPR72 expressing clones have been obtained by transfection of CHO-K1 cells to coexpressing mitochondrial apoaequorin and […], limiting dilution and selection by RT-PCR. […] A functional assay based on the luminescence of mitochondrial aequorin intracellular Ca^2+ release (Stables et al., 1997, Anal. Biochem. 252:115-126; incorporated herein by reference) was performed as described (Detheux et al., 2000, J. Exp. Med., 192 1501-1508; incorporated herein by reference). […] Results are expressed as Relative Light Units (RLU). […]

| Compound | concentration at which the mouse GPR72 is specifically activated |
| --- | --- |
| CCCCC/C=C\C/C=C\C/C=C\C/C=C\CCCC(=O)O [arachidonic acid, 5,8,11,14-all-cis-eicosatetraenoic acid] | around 5 micromolar |
